Test results from patent US20130252988A1, “COMPOSITIONS AND METHODS FOR TREATING MYELOFIBROSIS” (TARGEGEN, INC., priority 2010, published 2013).
“Also recorded” adds a separate entry of the source. Where a name gives a salt, the structure may show the parent alone.

Columns and labels:
Type in all cases: in vivo, human
platelet count = test: Thrombocytosis: platelet count; settings: for Subjects who achieved a normal platelet count: after 6 cycles; for Subjects with a normal platelet count: following 12 cycles
[1] = tested on: subjects with myelofibrosis (palpable splenomegaly); test: Palpable spleen size / splenomegaly response (IWG-MRT criteria); parameters: Clinical improvement (IWG response), subjects by 20 weeks: reference not given here; settings: for Subjects with =50% decrease in palpable spleen size persistent for at least 8 weeks (Clinical Improvement, CI) / Subjects with a minimum 25% decrease in palpable spleen size: by cycle 6; for Subjects with a minimum 25% decrease in palpable spleen size: intent-to-treat; for Subjects with spleen response (CI): by cycle 12
Procedure: (§1) Responses were measured every 4 weeks per International Working Group for MPN Research and Treatment (IWG-MRT) criteria (Tefferi A et al., Blood 108:1497-1503, 2006). Assessment of bone marrow histology was performed at baseline and every 24 weeks of therapy. Changes in JAK2V617F allele burden in the granulocyte fraction of peripheral blood were measured as previously described (Kittur J et al., Cancer 109:2279-2284, 2007); the assessments were at baseline and every 4 weeks during the first 6 cycles, and every 6th cycle of therapy in the extension study.

[2] = Body weight during study treatment
JAK2V617F allele burden = JAK2V617F allele burden in the granulocyte fraction of peripheral blood
Procedure: as §1

[3] = 680 mg/day starting dose (N=37)
[4] = MTD cohort, subjects who completed 6 cycles

Cc1cnc(Nc2ccc(OCCN3CCCC3)cc2)nc1Nc1cccc(S(=O)(=O)NC(C)(C)C)c1 [TG101348, N-tert-butyl-3-[(5-methyl-2-{[4-(2-pyrrolidin-1-ylethoxy)phenyl]amino}pyrimidin-4-yl)amino]benzenesulfonamide dihydrochloride monohydrate]
Subjects who achieved a normal platelet count (platelet count; MTD cohort (7 with baseline thrombocytosis)): 100%
Subjects who achieved a normal platelet count (platelet count; across doses (10 with baseline thrombocytosis)): 90%
Effect on platelet counts in thrombocytosis (platelet count; baseline platelet count >450×10^9/L): able to reduce platelet counts
Subjects with a normal platelet count (platelet count; MTD cohort, all of 6): 6 subjects
Subjects with a normal platelet count (platelet count; across doses (7 of 8)): 88%
Clinical improvement (IWG response), subjects by 12 weeks [1, 3]: 56%
Clinical improvement (IWG response), subjects by 20 weeks [1, 3]: 100%
Subjects who achieved clinical improvement based on reduction of palpable splenomegaly (IWG response) [1, 3]: 49%
Complete response of splenomegaly ([1]; Example 2 conclusions): ~30%
Proportion achieving =50% reduction in palpable splenomegaly ([1]; Example 2 conclusions): two-thirds
Mean (standard deviation) duration of spleen response per IWG-MRT criteria ([1]; MTD cohort): 288 (±76) days
Median time to CI ([1]; MTD cohort, range 41-170): 113 days
Subjects in whom the spleen became non palpable [1, 4]: 31%
Subjects with =25% reduction in palpable spleen size [1, 4]: 90%
Subjects with =50% reduction in palpable spleen size [1, 4]: 66%
Subjects with JAK2V617F-negative MF who achieved CI ([1]; Three of 4 subjects who completed 6 cycles): 75%
Median time to CI ([1]; across doses, range 41 to 171): 141 days
Patients with reduction in palpable spleen size of at least 50% ([1]; at 3 months, 33 patients who started at =680 mg and completed at least 3 cycles, 22 patients): 67%
Patients in whom the spleen became non-palpable ([1]; at 3 months, 33 patients who started at =680 mg, 9 patients): 27%
Relapse or disease progression ([1]; at the time of data collection (Example 2)): no relapse or disease progression
Subjects with =50% decrease in palpable spleen size persistent for at least 8 weeks (Clinical Improvement, CI) ([1]; MTD cohort): 45%
Subjects with a minimum 25% decrease in palpable spleen size ([1]; MTD cohort): 65%
Subjects with =50% decrease in palpable spleen size persistent for at least 8 weeks (Clinical Improvement, CI) ([1]; overall): 39%
Subjects with a minimum 25% decrease in palpable spleen size ([1]; overall (36 subjects)): 61%
Subjects with spleen response (CI) ([1]; MTD cohort): 50%
Subjects with spleen response (CI) ([1]; overall): 48%
Lowest starting dose at which CI was observed ([1]; in vivo): 240 mg/day
Palpable spleen size after treatment ([1]; one subject with JAK2V617F-positive PMF, started at 680 mg/day, 9 cm before): 0 cm
Mean (standard deviation) duration of spleen response per IWG-MRT criteria ([1]; overall): 315 (±129) days
Onset of spleen response ([1]; rapid, generally seen within): ≤ 2 cycles
Weight, change from baseline, median ([2]; 6 Cycles, MTD Cohort (n = 28)): 0.6 kg
Weight, median ([2]; 6 Cycles, MTD Cohort (n = 28)): 77.7 kg
Weight, change from baseline, median ([2]; 6 Cycles, Overall (n = 43)): 0.4 kg
Weight, median ([2]; 6 Cycles, Overall (n = 43)): 76.9 kg
Weight, change from baseline, median ([2]; 12 Cycles, MTD Cohort (n = 26)): 0.35 kg
Weight, median ([2]; 12 Cycles, MTD Cohort (n = 26)): 76.5 kg
Weight, change from baseline, median ([2]; 12 Cycles, Overall (n = 36)): 0.7 kg
Weight, median ([2]; 12 Cycles, Overall (n = 36)): 76.1 kg
Median body weight relative to baseline ([2]; end of 6 and 12 cycles, overall and MTD cohorts): stable relative to baseline
Subjects exhibiting no change in allele burden (JAK2V617F allele burden; 12 cycles, 100% allele burden at baseline): 2
Median JAK2V617F allele burden (JAK2V617F allele burden; 23 subjects with baseline >20% (baseline median 60%), after 6 cycles, range 4%-100%): 31%
Median JAK2V617F allele burden (JAK2V617F allele burden; 23 subjects with baseline >20% (baseline median 60%), after 12 cycles, range 7%-100%): 32%
Patients with =50% reduction in VF allele burden (JAK2V617F allele burden; 48 evaluable VF-positive patients (21 patients), last available follow-up): 44%
Median decrease in granulocyte mutant allele burden (JAK2V617F allele burden; 48 evaluable VF-positive patients, last available follow-up): 48%
Median JAK2V617F allele burden (JAK2V617F allele burden; all mutation-positive subjects (baseline median 20%), after 6 cycles, range 0%-100%): 17%
Median JAK2V617F allele burden (JAK2V617F allele burden; all mutation-positive subjects (baseline median 20%), after 12 cycles, range 0%-100%): 19%
Change in JAK2V617F allele burden versus pre-study baseline (JAK2V617F allele burden; all mutation-positive subjects (n=51), after 6 cycles (p=0.04) and 12 cycles (p=0.01)): significant decrease
Subjects with =50% decrease in JAK2V617F (JAK2V617F allele burden; baseline >20%, 12 cycles, 7 subjects): 39%
Subjects exhibiting an increase in allele burden (JAK2V617F allele burden; baseline >20%, 12 cycles, Three subjects (7%, 18%, and 22%)): 17%
Median decrease in JAK2V617F allele burden (JAK2V617F allele burden; baseline >20%, 18 subjects who completed 12 cycles, range 29% to 82%): 50%
Subjects exhibiting an increase in JAK2V617F allele burden (JAK2V617F allele burden; baseline >20%, after 6 cycles, 4 subjects (18%, 21%, 30%, and 58%)): 20%
Subjects with =50% decrease in JAK2V617F allele burden (JAK2V617F allele burden; baseline >20%, after 6 cycles, 9 subjects): 45%
Subjects exhibiting a decrease in JAK2V617F allele burden (JAK2V617F allele burden; baseline >20%, after 6 cycles, 16 of 20 subjects): 80%
Median decrease in JAK2V617F allele burden (JAK2V617F allele burden; baseline >20%, after 6 cycles, 16 subjects, range 6% to 96%): 61%
Patients with =50% reduction in VF allele burden (JAK2V617F allele burden; group who started treatment at =680 mg): 48%
Change in JAK2V617F allele burden versus pre-study baseline (JAK2V617F allele burden; subgroup with baseline allele burden >20% (n=23), after 6 cycles (p=0.002) and 12 cycles (p=0.002), dihydrochloride monohydrate): significant and even more pronounced decrease; also recorded: significant decrease
Subjects with decreased JAK2 V617F allele burden (JAK2V617F allele burden; subjects with baseline >20% (N=22), FIG. 6): 59%
